Assay results reported in ChEMBL document CHEMBL5465560, “Selectivity Literature for EUbOPEN Chemogenomic Library” (2024).
Each block holds one molecule with its values, some of them ahead of it.

Key:
[1] = biological target: Cell division control protein 42 homolog (Homo sapiens) (UniProt P60953); assay: Selectivity interaction (Kinase panel (Invitrogen)) EUB0000639a CDC42; conditions: at 200 nM
[2] = biological target: T1, Serine/threonine-protein kinase greatwall (Homo sapiens) (UniProt Q96GX5); assay: Selectivity interaction (ActivX KiNativ screen (kinase selectivity in THP-1 cell lysates)) EUB0000639a MASTL; assay type: subcellular; conditions: lysate, at 5 µM
T1 sequence (whole entry): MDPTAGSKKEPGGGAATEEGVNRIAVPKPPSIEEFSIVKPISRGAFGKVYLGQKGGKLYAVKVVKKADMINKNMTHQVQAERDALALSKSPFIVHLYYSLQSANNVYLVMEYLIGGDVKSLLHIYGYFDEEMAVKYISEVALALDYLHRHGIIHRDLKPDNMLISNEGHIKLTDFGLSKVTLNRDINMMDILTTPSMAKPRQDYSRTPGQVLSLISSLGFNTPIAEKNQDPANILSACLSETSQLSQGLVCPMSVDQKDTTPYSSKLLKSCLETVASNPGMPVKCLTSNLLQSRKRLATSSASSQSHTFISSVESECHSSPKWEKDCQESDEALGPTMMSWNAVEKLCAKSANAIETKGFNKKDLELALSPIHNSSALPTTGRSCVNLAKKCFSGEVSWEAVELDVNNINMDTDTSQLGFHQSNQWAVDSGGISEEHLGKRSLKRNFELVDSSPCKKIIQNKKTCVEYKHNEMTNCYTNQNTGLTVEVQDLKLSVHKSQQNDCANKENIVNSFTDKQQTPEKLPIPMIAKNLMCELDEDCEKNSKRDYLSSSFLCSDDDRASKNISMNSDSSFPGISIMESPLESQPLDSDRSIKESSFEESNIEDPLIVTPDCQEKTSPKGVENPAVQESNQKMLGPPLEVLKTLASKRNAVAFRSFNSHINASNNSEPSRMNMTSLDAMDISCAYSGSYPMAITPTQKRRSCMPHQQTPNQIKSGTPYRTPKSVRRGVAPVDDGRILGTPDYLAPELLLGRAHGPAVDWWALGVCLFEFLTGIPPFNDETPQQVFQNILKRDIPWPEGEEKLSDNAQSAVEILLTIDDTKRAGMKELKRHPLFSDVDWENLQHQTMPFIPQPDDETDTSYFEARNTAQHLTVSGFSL

[3] = tested on: Epidermal growth factor receptor (Homo sapiens), P00533 [L858R]; conditions: at 10 µM
Chain of Epidermal growth factor receptor (Homo sapiens), P00533 [L858R] (P00533 whole entry L858R): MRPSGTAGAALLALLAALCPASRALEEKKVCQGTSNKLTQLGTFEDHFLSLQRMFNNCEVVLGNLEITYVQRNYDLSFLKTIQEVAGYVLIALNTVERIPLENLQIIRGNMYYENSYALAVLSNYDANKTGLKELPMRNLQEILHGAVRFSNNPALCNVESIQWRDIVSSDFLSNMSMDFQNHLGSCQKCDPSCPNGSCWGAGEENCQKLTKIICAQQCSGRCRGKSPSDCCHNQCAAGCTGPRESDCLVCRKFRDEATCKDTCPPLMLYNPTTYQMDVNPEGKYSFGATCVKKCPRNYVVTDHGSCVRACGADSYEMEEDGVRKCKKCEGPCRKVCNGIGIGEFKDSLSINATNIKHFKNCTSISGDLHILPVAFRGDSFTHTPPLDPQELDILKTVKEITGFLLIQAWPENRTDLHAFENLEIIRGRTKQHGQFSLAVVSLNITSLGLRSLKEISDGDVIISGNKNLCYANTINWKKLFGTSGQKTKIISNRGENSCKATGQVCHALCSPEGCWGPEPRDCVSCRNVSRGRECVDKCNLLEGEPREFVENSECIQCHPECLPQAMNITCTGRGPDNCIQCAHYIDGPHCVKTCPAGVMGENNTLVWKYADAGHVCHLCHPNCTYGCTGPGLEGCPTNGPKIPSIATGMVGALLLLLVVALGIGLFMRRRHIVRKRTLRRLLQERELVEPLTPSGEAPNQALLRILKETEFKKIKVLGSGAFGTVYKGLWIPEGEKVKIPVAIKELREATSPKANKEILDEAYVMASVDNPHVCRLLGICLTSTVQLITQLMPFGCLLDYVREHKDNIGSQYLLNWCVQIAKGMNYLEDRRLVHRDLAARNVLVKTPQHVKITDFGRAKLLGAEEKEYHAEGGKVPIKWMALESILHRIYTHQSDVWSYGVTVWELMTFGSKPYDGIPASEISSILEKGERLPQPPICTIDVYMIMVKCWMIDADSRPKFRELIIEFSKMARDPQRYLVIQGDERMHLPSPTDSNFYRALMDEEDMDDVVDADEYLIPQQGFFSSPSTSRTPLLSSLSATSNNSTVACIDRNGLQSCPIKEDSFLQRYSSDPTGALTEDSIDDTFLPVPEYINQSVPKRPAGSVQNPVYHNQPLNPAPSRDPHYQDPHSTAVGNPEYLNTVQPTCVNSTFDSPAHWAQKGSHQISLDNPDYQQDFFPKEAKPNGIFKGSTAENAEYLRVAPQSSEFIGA

[4] = biological target: T2, Prostaglandin G/H synthase 2 (Homo sapiens) (UniProt P35354); assay: Selectivity interaction (Panel of kinases, GPCRs, ion channels and transporters (enzymatic assay)) EUB0000223bCl PTGS2
T2 sequence (whole entry): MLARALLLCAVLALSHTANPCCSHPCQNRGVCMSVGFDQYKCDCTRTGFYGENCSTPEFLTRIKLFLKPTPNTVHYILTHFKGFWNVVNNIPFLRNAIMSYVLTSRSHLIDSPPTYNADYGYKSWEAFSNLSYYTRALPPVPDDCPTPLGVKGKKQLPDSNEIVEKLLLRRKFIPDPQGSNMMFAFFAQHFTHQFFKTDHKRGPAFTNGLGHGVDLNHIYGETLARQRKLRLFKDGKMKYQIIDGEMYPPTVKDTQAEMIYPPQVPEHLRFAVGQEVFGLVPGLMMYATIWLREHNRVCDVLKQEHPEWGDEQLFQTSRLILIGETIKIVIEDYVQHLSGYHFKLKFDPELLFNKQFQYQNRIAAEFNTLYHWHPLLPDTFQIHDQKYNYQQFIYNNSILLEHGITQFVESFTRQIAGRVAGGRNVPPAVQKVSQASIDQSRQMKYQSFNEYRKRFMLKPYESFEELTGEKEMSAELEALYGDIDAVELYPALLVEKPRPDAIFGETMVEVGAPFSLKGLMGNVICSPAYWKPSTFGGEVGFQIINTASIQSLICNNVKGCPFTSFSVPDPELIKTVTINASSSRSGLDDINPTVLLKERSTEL

[5] = biological target: T3, Serine/threonine-protein kinase D2 (Homo sapiens) (UniProt Q9BZL6); assay: Selectivity interaction (KinomeScan (DiscoverX)) EUB0000045b PRKD2
T3 sequence (whole entry): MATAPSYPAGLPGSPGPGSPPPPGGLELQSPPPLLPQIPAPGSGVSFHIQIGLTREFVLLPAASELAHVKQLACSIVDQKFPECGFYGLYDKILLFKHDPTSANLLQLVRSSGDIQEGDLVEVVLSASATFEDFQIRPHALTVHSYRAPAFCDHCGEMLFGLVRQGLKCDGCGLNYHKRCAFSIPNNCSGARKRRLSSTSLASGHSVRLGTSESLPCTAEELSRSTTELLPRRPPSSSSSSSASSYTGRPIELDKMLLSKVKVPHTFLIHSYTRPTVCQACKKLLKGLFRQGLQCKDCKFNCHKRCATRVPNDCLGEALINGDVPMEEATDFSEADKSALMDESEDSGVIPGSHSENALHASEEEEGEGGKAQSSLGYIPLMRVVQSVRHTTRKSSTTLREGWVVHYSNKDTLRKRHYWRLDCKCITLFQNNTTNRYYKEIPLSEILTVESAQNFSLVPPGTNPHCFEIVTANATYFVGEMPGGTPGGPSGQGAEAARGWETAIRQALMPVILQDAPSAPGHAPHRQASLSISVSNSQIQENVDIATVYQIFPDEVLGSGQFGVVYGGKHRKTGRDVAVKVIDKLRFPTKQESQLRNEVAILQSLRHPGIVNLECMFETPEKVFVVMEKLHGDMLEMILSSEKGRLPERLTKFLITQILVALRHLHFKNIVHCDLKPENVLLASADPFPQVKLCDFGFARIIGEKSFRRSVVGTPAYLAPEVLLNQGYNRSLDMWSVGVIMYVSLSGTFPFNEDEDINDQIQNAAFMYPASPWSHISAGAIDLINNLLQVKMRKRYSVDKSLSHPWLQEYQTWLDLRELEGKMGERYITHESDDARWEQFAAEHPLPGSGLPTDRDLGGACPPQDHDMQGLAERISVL

[6] = biological target: Angiopoietin-1 receptor (Homo sapiens) (UniProt Q02763); assay: Selectivity interaction (KinomeScan (DiscoverX)) EUB0001079a TEK; conditions: at 1 µM
Chain of Angiopoietin-1 receptor (Homo sapiens) (Q02763 whole entry): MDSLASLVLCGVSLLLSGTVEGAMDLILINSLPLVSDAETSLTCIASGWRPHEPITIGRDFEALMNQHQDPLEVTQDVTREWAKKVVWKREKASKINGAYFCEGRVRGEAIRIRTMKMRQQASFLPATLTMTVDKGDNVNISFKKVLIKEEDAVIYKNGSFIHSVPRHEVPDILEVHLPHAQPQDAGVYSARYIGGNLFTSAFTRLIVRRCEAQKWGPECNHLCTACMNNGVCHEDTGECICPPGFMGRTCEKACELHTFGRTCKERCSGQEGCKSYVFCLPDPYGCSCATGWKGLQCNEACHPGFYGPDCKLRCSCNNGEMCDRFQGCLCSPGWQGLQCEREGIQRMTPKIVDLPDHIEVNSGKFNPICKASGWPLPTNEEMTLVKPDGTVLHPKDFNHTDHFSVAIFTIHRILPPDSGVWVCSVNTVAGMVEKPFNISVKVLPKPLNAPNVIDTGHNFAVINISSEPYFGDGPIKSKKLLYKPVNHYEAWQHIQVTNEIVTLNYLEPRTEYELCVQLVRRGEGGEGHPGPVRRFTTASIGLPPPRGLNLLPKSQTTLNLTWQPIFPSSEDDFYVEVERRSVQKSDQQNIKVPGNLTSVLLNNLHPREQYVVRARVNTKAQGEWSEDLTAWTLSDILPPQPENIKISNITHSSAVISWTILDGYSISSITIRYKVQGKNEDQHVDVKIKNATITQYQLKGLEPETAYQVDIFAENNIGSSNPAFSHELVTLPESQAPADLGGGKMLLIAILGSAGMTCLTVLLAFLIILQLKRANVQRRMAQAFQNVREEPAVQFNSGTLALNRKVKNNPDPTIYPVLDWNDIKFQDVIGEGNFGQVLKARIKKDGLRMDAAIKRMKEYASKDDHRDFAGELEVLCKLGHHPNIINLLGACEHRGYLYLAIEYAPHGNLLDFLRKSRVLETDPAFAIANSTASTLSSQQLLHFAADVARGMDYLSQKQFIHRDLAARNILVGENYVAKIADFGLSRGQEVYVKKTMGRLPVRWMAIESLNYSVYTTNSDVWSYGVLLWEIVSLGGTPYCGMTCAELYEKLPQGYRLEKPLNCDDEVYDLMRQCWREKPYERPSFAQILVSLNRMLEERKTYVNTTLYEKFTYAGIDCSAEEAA

[7] = biological target: Serine/threonine-protein kinase 24 (Homo sapiens) (UniProt Q9Y6E0); assay: Selectivity interaction (Kinase panel (KiNativ target engagement assay in Jurkat cells)) EUB0001635a STK24; assay type: cell-based; conditions: Selectivity number of off-targets 0.0, Selectivity number of targets 233.0, Source Knowledge https://www.sciencedirect.com/science/article/pii/S2451945619300674?via%3Dihub, at 1 µM
Chain of Serine/threonine-protein kinase 24 (Homo sapiens) (Q9Y6E0 whole entry, looked up): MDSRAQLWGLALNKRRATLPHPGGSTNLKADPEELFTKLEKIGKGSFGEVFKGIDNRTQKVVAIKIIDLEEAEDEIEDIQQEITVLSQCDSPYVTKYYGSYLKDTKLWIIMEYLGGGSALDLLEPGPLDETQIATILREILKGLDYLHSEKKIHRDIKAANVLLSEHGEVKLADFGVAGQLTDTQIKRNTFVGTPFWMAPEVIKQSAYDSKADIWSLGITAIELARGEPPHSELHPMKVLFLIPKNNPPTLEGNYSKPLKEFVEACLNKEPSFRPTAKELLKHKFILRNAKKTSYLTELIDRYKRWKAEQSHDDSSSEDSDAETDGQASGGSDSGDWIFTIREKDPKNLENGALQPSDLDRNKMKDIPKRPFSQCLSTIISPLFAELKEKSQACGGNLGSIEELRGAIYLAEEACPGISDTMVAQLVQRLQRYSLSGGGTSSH

Chain of Cell division control protein 42 homolog (Homo sapiens) (P60953 whole entry, looked up): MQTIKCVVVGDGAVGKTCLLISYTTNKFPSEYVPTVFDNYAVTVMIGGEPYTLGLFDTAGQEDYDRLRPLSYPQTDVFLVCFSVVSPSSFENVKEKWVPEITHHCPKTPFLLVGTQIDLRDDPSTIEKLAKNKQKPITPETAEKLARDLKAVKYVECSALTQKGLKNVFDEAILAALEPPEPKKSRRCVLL

- % of inhibition [1]: 13.7%
- % of inhibition [2]: 77.2%
Structure (SMILES): CC[C@@H]1[C@H](F)C(=O)N[C@@H]1COc1nccc2cc(C(N)=O)c(OC)cc12 [ZIMLOVISERTIB]

Structure (SMILES): COCC(=O)NC/C=C/c1ccc2ncnc(Nc3ccc(Oc4ccc(C)nc4)c(C)c3)c2c1 [CP-724714]
- % of control [3]: 0.6%

Structure (SMILES): COc1cc(C(=O)N2CC[C@@H](O)[C@@H](N)C2)cc2nc(-c3cc4ccccc4n3CC3CC3)n(C)c12
- pXC50 [4]: < 4 M

Structure (SMILES): C=CC(=O)Nc1cc(-n2c(=O)ccc3cnc4ccc(-c5ccc(NS(C)(=O)=O)cc5)cc4c32)ccc1C
- % of control ([5]; at 1 µM): 87%
- % of control ([5]; at 10 µM): 82%

Structure (SMILES): Nc1cnc(N2CCc3cc(S(=O)(=O)Nc4c(F)cc(Cl)cc4F)cc(N4CCCC4=O)c32)nc1 [TP-020n]
- % of control [6]: 78%

Structure (SMILES): C=CC(=O)Nc1ccc(C(=O)Nc2[nH]nc3c2CN(C(=O)N[C@H](CN(C)C)c2ccccc2)C3(C)C)cc1
- % of engagement [7]: 41.8%
